Experimental data reported in patent US20140057788A1, “METHODS OF INHIBITING ETHYLENE RESPONSES IN PLANTS USING DICYCLOPROPENE COMPOUNDS” (North Carolina State University, priority 2007, published 2014).

Columns and labels:
pea plants = assay: Effect on etiolated pea plant growth in the presence of ethylene; assay type: in vivo; details: pea plants grown in the presence of 1 ppm of ethylene, FIG. 1
Description: FIG. 1. Effect of 1,6-dicyclopropenyl-hexane on etiolated plea plant growth.

bananas = assay: Protection of bananas from ethylene responses; assay type: in vivo, banana
ethylene responses = assay: Anti-ethylene activity when applied as a gas; assay type: in vivo
Volatility = assay type: physicochemical

- volatility (Volatility): volatile
SMILES: C1=C(CCCCCCC2=CC2)C1 [1,6-dicyclopropenyl-hexane]
- anti-ethylene activity (pea plant growth) (pea plants): significant anti-ethylene activity
- duration of protection from ethylene responses (bananas): at least 42 days
- active concentration (ethylene responses; applied as a gas): 0.3 nL L^−1
- efficiency at different temperatures (ethylene responses; in vivo): work efficiently at different temperatures
